Laboratory results taken from PubChem BioAssay (NCI).
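Step 1: Grow cells in 96-well plates. Step 2: Expose to compound for 48 hours at 5 concentrations. Step 3: Interpolate endpoints linearly; if unreached, use highest concentration. The concentration for 50% growth inhibition is given as GI50. TGI marks complete inhibition of growth.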

Legend:
Experiment in all cases: growth of human tumour cells (NCI), 48 h
[1] = test system: PC-3 prostate
[2] = test system: NCI/ADR-RES ovarian
[3] = test system: NCI-H23 lung
[4] = test system: SNB-75 CNS
[5] = test system: HCT-116 colon
[6] = test system: CCRF-CEM leukemia
[7] = test system: NCI-H226 lung
[8] = test system: A498 renal
[9] = test system: SK-MEL-5 melanoma
[10] = test system: MALME-3M melanoma
[11] = test system: SR leukemia
[12] = test system: UO-31 renal
[13] = test system: NCI-H522 lung
[14] = test system: OVCAR-3 ovarian
[15] = test system: T-47D breast
[16] = test system: TK-10 renal
[17] = test system: K-562 leukemia
[18] = test system: A549 NSCLC
[19] = test system: SNB-19 CNS
[20] = test system: RPMI-8226 leukemia
[21] = test system: M14 melanoma
[22] = test system: HL-60(TB) leukemia
[23] = test system: MDA-MB-435
[24] = test system: MOLT-4 leukemia
[25] = test system: SF-539 CNS
[26] = test system: MCF7 breast
[27] = test system: OVCAR-5 ovarian
[28] = test system: OVCAR-8 ovarian
[29] = test system: U251 CNS
[30] = test system: HCT-15 colon
[31] = test system: DU-145 prostate
[32] = test system: NCI-H460 lung
[33] = test system: HS 578T breast
[34] = test system: SW-620 colon
[35] = test system: SF-268 CNS
[36] = test system: KM12 colon
[37] = test system: ACHN renal
[38] = test system: BT-549 breast
[39] = test system: HOP-92 NSCLC
[40] = test system: SF-295 CNS
[41] = test system: MDA-MB-231 breast
[42] = test system: OVCAR-4 ovarian
[43] = test system: HT29 colon
[44] = test system: UACC-62 melanoma
[45] = test system: RXF 393 renal
[46] = test system: SN12C renal
[47] = test system: SK-MEL-2 melanoma
[48] = test system: HOP-62 NSCLC
[49] = test system: SK-OV-3 ovarian
[50] = test system: IGROV1 ovarian
[51] = test system: SK-MEL-28 melanoma
[52] = test system: CAKI-1 renal
[53] = test system: 786-0 renal
[54] = test system: LOX IMVI melanoma
[55] = test system: COLO 205 colon
[56] = test system: HCC-2998 colon

`Cc1c(Cl)cccc1NC(=O)c1sc2nc3c(cc2c1N)C(=O)CCC3` was tested, and the GI50 [1] was 51.7 nM, the TGI [1] was greater than 52200 nM and the GI50 [2] was 46.3 nM. It also gave a TGI [2] of 12900 nM, a GI50 [3] of 137 nM and a TGI [3] greater than 100000 nM. It also gave a GI50 [4] of 38.5 nM, a TGI [4] of 20900 nM and a GI50 [5] of 64.4 nM. It also gave a TGI [5] greater than 100000 nM, a GI50 [6] of 108 nM and a TGI [6] greater than 100000 nM. The GI50 [7] was 102 nM, the TGI [7] was greater than 37100 nM and the GI50 [8] was 23 nM. The TGI [8] was 203 nM, the GI50 [9] was 130 nM and the TGI [9] was 2780 nM. For the same compound, the GI50 [10] was 36.3 nM, the TGI [10] was greater than 100000 nM and the GI50 [11] was 72.5 nM. It also gave a TGI [11] greater than 100000 nM, a GI50 [12] of 68.2 nM and a TGI [12] greater than 91500 nM. For the same compound, the GI50 [13] was 20.4 nM, the TGI [13] was 395 nM and the GI50 [14] was 48 nM. It also gave a TGI [14] of 530 nM, a GI50 [15] of 55 nM and a TGI [15] greater than 100000 nM. It also gave a GI50 [16] of 37600 nM, a TGI [16] greater than 100000 nM and a GI50 [17] of 37.1 nM. It also gave a TGI [17] greater than 100000 nM, a GI50 [18] of 61.9 nM and a TGI [18] greater than 100000 nM. It also gave a GI50 [19] of 69.8 nM, a TGI [19] greater than 100000 nM and a GI50 [20] of 234 nM. The TGI [20] was greater than 55400 nM, the GI50 [21] was 65.5 nM and the GI50 [22] was 81 nM. For the same compound, the TGI [22] was 769 nM, the GI50 [23] was 20.3 nM and the TGI [23] was 48.8 nM. For the same compound, the GI50 [24] was 466 nM, the TGI [24] was greater than 100000 nM and the GI50 [25] was 35.3 nM. For the same compound, the TGI [25] was 190 nM, the GI50 [26] was 45.2 nM and the TGI [26] was greater than 100000 nM. For the same compound, the GI50 [27] was 283 nM, the TGI [27] was greater than 100000 nM and the GI50 [28] was 272 nM. The TGI [28] was greater than 55600 nM, the GI50 [29] was 83.6 nM and the TGI [29] was greater than 37400 nM. The GI50 [30] was 66.5 nM, the TGI [30] was greater than 100000 nM and the GI50 [31] was 124 nM. It also gave a TGI [31] of 47300 nM, a GI50 [32] of 40.7 nM and a TGI [32] greater than 100000 nM. The GI50 [33] was 47.9 nM, the TGI [33] was greater than 58200 nM and the GI50 [34] was 48.4 nM. For the same compound, the TGI [34] was greater than 100000 nM, the GI50 [35] was 206 nM and the TGI [35] was greater than 100000 nM. It also gave a GI50 [36] of 65.8 nM, a TGI [36] greater than 100000 nM and a GI50 [37] of 82.5 nM. It also gave a TGI [37] greater than 61500 nM, a GI50 [38] of 169 nM and a TGI [38] greater than 100000 nM. The GI50 [39] was 47.9 nM, the TGI [39] was 24100 nM and the GI50 [40] was 42.9 nM. The TGI [40] was greater than 100000 nM, the GI50 [41] was 138 nM and the TGI [41] was 16500 nM. For the same compound, the GI50 [42] was 569 nM, the TGI [42] was greater than 84700 nM and the GI50 [43] was 44.5 nM. The TGI [43] was greater than 33400 nM, the GI50 [44] was 50.2 nM and the TGI [44] was greater than 100000 nM. For the same compound, the GI50 [45] was 37 nM, the TGI [45] was 1110 nM and the GI50 [46] was 124 nM. The TGI [46] was greater than 100000 nM, the GI50 [47] was 44 nM and the TGI [47] was greater than 56000 nM. The GI50 [48] was 102 nM, the TGI [48] was 29800 nM and the GI50 [49] was 59.7 nM. The TGI [49] was greater than 89700 nM, the GI50 [50] was 153 nM and the TGI [50] was greater than 100000 nM. The GI50 [51] was 174 nM, the TGI [51] was greater than 100000 nM and the GI50 [52] was 46.1 nM. The TGI [52] was greater than 100000 nM, the GI50 [53] was 91.7 nM and the TGI [53] was greater than 59400 nM. It also gave a GI50 [54] of 78.2 nM, a TGI [54] greater than 100000 nM and a GI50 [55] of 50 nM. It also gave a TGI [55] of 344 nM, a GI50 [56] of 201 nM and a TGI [56] greater than 60000 nM.
